Assay results as given in article PMC6120666 (The EMBO Journal, 2018).

Tests used:
recombinant RIPK2 kinase = molecular target: T1, recombinant RIPK2 kinase (Homo sapiens, UniProt O43353); assay: RIPK2 ADPGlo in vitro kinase assay; assay type: biochemical; settings: average ± SD of at least three titrations, read-out: IC50, In vitro kinase, RIPK2 ADPGIo
T1 construct: made in house
Description: The BIR2 domains of XIAP and cIAP1 were cloned into the pGEX‐6P1 vector and were expressed in E. coli (BL21) cells as a fusion protein with N‐terminal 6xHis (XIAP BIR2 only) and GST tags. Protein expression was induced with IPTG, and cells were lysed using BugBuster protein extraction reagent (#70921, Merck Millipore) according to manufacturer's instructions. Proteins were purified with the FPLC protein purification system ÄKTA PrimePlus (GE Healthcare Life Sciences) using HisTrap FF column purification followed by gel filtration (HiLoad 26/600 Superdex 75 pg (GE Healthcare Life Sciences)). Collected fractions were stored at −80°C and used for probing of peptide array membranes. Expression and purification of recombinant RIPK1‐3 was performed as previously described (Canning et al, 2015; Najjar et al, 2015). RIPK1‐3 ADPGlo kinase assays using 20 ng/well protein were performed for 2 h at room temperature also as previously described (Canning et al, 2015; Najjar et al, 2015).

NanoLuc-RIPK2 = molecular target: T2, NanoLuc-RIPK2 (Homo sapiens, UniProt O43353); assay: nanoBRET cellular RIPK2 target engagement assay in HEKBlue cells; settings: average ± SD of at least three titrations, read-out: IC50, Cellular activity, nanoBRET RIPK2 binding
T2 construct: host or cells: hNOD2-HEKBlue cells

RAW264.7 cells = assay: TNF ELISA, MDP-stimulated RAW264.7 cells; assay type: cell-based; settings: Mus musculus, MDP 10 μg/ml, 24 h, read-out: RAW264.7 TNF release inhibition Est. IC50
Protocol: Figure 4 Cellular and in vivo characterization of novel RIPK2 inhibitors on inflammatory signaling • A, B ELISA measurement of TNF release from RAW264.7 cells treated with MDP (10 μg/ml, 24 h) and CSLP compounds or RIPK2 inhibitor WEHI‐345 as indicated. […] After 4 h, blood was collected by cardiac puncture and circulating levels of TNF were analyzed by ELISA. Data information: Data represent the mean ± SEM of three independent experiments. **P < 0.01, n.s., not significant. Two‐tailed unpaired Student's t‐test was used to determine statistical significance. See also Fig EV3. TEXT PRINTED IN THE PICTURE: (B) CSLP37: RAW264.7 TNF release inhibition Est. IC50 (nM): 12.6; RAW264.7 TNF release inhibition St. Err.: ±1.7 | (B) CSLP43: RAW264.7 TNF release inhibition Est. IC50 (nM): 1.2; RAW264.7 TNF release inhibition St. Err.: ±0.2 | (B) CSLP48: RAW264.7 TNF release inhibition Est. IC50 (nM): NI; RAW264.7 TNF release inhibition St. Err.: ±0.2 | (B) CSLP55: RAW264.7 TNF release inhibition Est. IC50 (nM): 143.0; RAW264.7 TNF release inhibition St. Err.: ±27.1 | (B) WEHI-345: RAW264.7 TNF release inhibition Est.
Cayman Chemical Company, Ann Arbor, MI), GSK583 (#HY-100339, MedChem Express, South Brunswick, NJ), WEHI-345 (MedKoo Biosciences, Morrisville, NC), Compound A (CpA, a kind gift from TetraLogic Pharmaceuticals, Malvern, PA). Generation of the CSLP compound series is described in Suebsuwong et al. 2018 (manuscript in preparation). […]
RAW264.7 cells were seeded into 12 well plates at a density of 1.5x10^5 cells/well in 1 ml of media.
Inhibitors were diluted and added in 1 μl DMSO 15 min prior to the addition of 10 μg/ml MDP or 10 ng/ml E. coli LPS for 24 h. For TNF measurements, 100 μl of undiluted media (MDP) or 5-fold diluted media was analyzed using Duo-Set anti-mouse TNF ELISA kit (R&D Systems, Minneapolis, MN).
Values of media-only wells were subtracted and %inhibition for each compound concentration relative to the DMSO/MDP (or LPS)-treated controls were calculated. Inhibition values + StDev were fitted by non-linear regression using Prism software (GraphPad) to calculate IC50 values. […]

[1] = molecular target: T3, XIAP BIR2 - RIPK2 interaction (Homo sapiens, UniProt O43353); assay: GST-BIR2-XIAP pulldown of RIPK2; assay type: binding; settings: for pulldown of RIPK2 by GST-BIR2-XIAP from cell lysates: U2OS/NOD2 lysates, inhibitors at 100-fold IC50 of RIPK2 kinase activity; for GST-BIR2-XIAP binding to recombinant RIPK2 kinase domain: recombinant human RIPK2 KD (dephosphorylated), same inhibitor concentrations
T3 construct: U2OS/NOD2 cells were lysed in TBS lysis buffer; endogenous in cells; host or cells: U2OS/NOD2 cell lysate (RIPK2); E. coli BL21 (GST-BIR2-XIAP)
Protocol: For co‐immunoprecipitation of HA‐XIAP with RIPK2, transfected and treated cells were lysed in TBS buffer containing 0.5% NP‐40, cOmplete and PhosSTOP inhibitors (Roche) and the lysate was cleared by centrifugation. The lysates were incubated with anti‐HA‐agarose overnight, washed 3× with lysis buffer, and analyzed by immunoblotting. For GST pulldown experiments, U2OS/NOD2 cells were lysed in TBS lysis buffer containing 0.5% NP‐40, cOmplete and PhosSTOP inhibitors (Roche). Cleared lysates were pretreated with kinase inhibitors or DMSO and incubated with GST‐XIAP‐BIR2 bound to Glutathione Sepharose at 4°C overnight. Bound material was washed 3× with lysis buffer or PBS, eluted with 15 mM Glutathione in PBS, and analyzed by immunoblotting. […] The bound material was eluted and analyzed as described above.
For coimmunoprecipitation of HA-XIAP with RIPK2, transfected and treated cells were lysed in TBS buffer containing 0.5% NP-40, cOmplete and PhosSTOP inhibitors (Roche) and the lysate was cleared by centrifugation. The lysates were incubated with anti-HA-agarose overnight, washed 3x with lysis buffer and analyzed by immunoblotting. For GST pull-down experiments, U2OS/NOD2 were lysed in TBS lysis buffer containing 0.5% NP-40, cOmplete and PhosSTOP inhibitors (Roche).
Cleared lysates were pretreated with kinase inhibitors or DMSO and incubated with GST-XIAP-BIR2 bound to Glutathione Sepharose at 4 °C overnight. Bound material was washed 3x with lysis buffer or PBS, eluted with 15 mM Glutathione in PBS and analyzed by immunoblotting. In pull-down […]
inhibitors or DMSO control in PBS were added together with RIPK2 kinase domain to GST-XIAP-BIR2 bound to Glutathione Sepharose. The bound material was eluted and analyzed as described above. […]

T1 sequence (O43353 whole entry): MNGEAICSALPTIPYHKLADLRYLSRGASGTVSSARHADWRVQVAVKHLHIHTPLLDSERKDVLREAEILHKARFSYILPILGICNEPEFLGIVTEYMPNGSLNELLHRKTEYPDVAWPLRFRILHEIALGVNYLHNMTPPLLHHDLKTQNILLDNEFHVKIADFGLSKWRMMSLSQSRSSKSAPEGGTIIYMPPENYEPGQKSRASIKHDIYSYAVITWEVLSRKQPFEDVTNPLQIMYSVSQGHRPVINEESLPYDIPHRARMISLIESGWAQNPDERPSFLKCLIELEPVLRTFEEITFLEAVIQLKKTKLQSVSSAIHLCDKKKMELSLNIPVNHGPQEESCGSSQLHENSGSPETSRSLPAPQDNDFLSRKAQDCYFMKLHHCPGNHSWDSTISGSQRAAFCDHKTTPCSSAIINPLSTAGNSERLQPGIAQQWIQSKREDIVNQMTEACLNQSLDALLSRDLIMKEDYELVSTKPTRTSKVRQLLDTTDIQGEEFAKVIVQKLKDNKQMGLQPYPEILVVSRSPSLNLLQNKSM
T2 sequence (O43353 whole entry): as above

Row | IC50 (recombinant RIPK2 kinase) | IC50 (NanoLuc-RIPK2) | IC50 (RAW264.7 cells) | Compound | pulldown of RIPK2 by GST-BIR2-XIAP from cell lysates [1] | GST-BIR2-XIAP binding to recombinant RIPK2 kinase domain [1]
1 | 53.5 ± 5.7 nM | 1230 nM | > 1000 nM | CCCS(=O)(=O)Nc1cc(-c2cc(-c3ccc(N4CCNCC4)cc3)cnc2N)ccc1O [CSLP48] | little effect | –
2 | 16.3 ± 4.6 nM | 36.3 ± 20.2 nM | 12.6 nM | CCCS(=O)(=O)Nc1cc(-c2cc(-c3ccc(N4CCNCC4)cc3)cnc2N)cc(F)c1OC [CSLP37] | efficiently antagonized | still antagonized
3 | 37.3 ± 1.3 nM | 521 ± 172 nM | 123 nM | Cc1ccc(-c2nn(C(C)(C)CNC(=O)c3ccncc3)c3ncnc(N)c23)cc1 [WEHI‐345, reference compound] | – | –

Row | Compound | IC50 (recombinant RIPK2 kinase) | IC50 (NanoLuc-RIPK2) | IC50 (RAW264.7 cells) | pulldown of RIPK2 by GST-BIR2-XIAP from cell lysates [1] | GST-BIR2-XIAP binding to recombinant RIPK2 kinase domain [1]
4 | CCCS(=O)(=O)Nc1cc(-c2cc(-c3ccc(N4CCNCC4)cc3)cnc2N)cc(OC)c1OC [CSLP43] | 19.9 ± 0.8 nM | 10.1 ± 3.8 nM | 1.2 nM | efficiently antagonized | still antagonized
5 | COc1cc(-c2cc(-c3ccc(N4CCNCC4)cc3)cnc2N)cc(F)c1OC [CSLP55] | 39.1 ± 3.9 nM | 195 ± 47.1 nM | 143 nM | little effect | –
